Laboratory results as given in patent US20110052684A1, “PHARMACEUTICAL COMPOSITION” (priority 2008, published 2011).
Structures can show the parent of a compound that is named as a salt.

Experiments:
Format in all cases: physicochemical
[1] = pKa (physicochemistry of the actives)
Excerpt: The synchronous release of the combination of actives comprising the once-daily pharmaceutical compositions of the present invention is particularly surprising when one considers that the differing physicochemical characteristics of the active ingredients and the likely differences in the permeability coefficients for the combination of active drugs would result in a differing rate and extent of drug release for each of the drugs chosen to be part of the combination. Accordingly, it was expected that it would be difficult to optimize the release kinetics of the combination of drugs contemplated without one drug potentially negatively influencing the release kinetics of the other drug of the combination.

[2] = Dissolution, 900 ml 0.1N HCl, USP Apparatus 1, 75 rpm, 37° C.; conditions: Example 29 homogenous CR tablet (batch no. 08070T)
Description: (§1) The dissolution profile of the above pharmaceutical composition was determined under the dissolution conditions described below in Tables 1A, 1B, and 1C.

[3] = Dissolution, 900 ml pH 6.8 phosphate buffer, USP Apparatus 1, 75 rpm, 37° C.; conditions: Example 29 homogenous CR tablet (batch no. 08070T)
Description: as §1

[4] = Dissolution, 900 ml pH 7.5 phosphate buffer, Apparatus 1, 75 rpm, 37 C.
Description: FIG. 27 is a graph depicting the dissolution profile in 900 ml of pH 7.5 phosphate buffer using USP Apparatus 1 at 75 rpm at 37° C. of the composition described in Example 27.
FIG. 28 is a graph depicting the dissolution profile in 900 ml of pH 7.5 phosphate buffer using USP Apparatus 1 at 75 rpm at 37° C. of the composition described in Example 28.
The dissolution profile of the above pharmaceutical composition was determined under the dissolution conditions described below in Table 27.
The dissolution profile of the above pharmaceutical composition was determined under the dissolution conditions described below in Table 28. The result of the dissolution testing is presented as a % of the total tramadol HCl and meloxicam in the controlled release tablet (batch 1258-175) and also depicted in FIG. 28.

Work on `OCCOCCN1CCN(C2=Nc3ccccc3Sc3ccccc32)CC1` [Quetiapine Fumarate, quetiapine fumarate] yielded a pKa [1] of 3.3.

In the case of `COc1cccc(C2(O)CCCCC2CN(C)C)c1` (stereo not shown) [Tramadol HCl], the “% Released” value ([2]; 0.5 hr) is reported as 18%, the “% Released” value ([2]; 1 hr) is reported as 28% and the “% Released” value ([2]; 2 hr) is reported as 42%. The “% Released” value ([2]; 3 hr) was 53%, the “% Released” value ([2]; 4 hr) was 62% and the “% Released” value ([2]; 5 hr) was 70%. The “% Released” value ([2]; 6 hr) was 76%, the “% Released” value ([2]; 8 hr) was 86% and the “% Released” value ([2]; 10 hr) was 93%. For the same compound, the “% Released” value ([2]; 12 hr) was 97%, the “% Released” value ([3]; 0.5 hr) was 19% and the “% Released” value ([3]; 1 hr) was 29%. The “% Released” value ([3]; 2 hr) was 44%, the “% Released” value ([3]; 3 hr) was 55% and the “% Released” value ([3]; 4 hr) was 65%. For the same compound, the “% Released” value ([3]; 5 hr) was 72%, the “% Released” value ([3]; 6 hr) was 79% and the “% Released” value ([3]; 8 hr) was 90%. For the same compound, the “% Released” value ([3]; 10 hr) was 98%, the “% Release” value ([4]; 2 hrs, Example 27 controlled release tablet (batch 1258-171), ethylcellulose coating) was 51% and the “% Release” value ([4]; 2 hrs, Example 28 controlled release tablet (batch 1258-175), Kollicoat SR 30D coating) was 0%. The “% Release” value ([4]; 4 hrs, Example 27 controlled release tablet (batch 1258-171), ethylcellulose coating) was 70%, the “% Release” value ([4]; 4 hrs, Example 28 controlled release tablet (batch 1258-175), Kollicoat SR 30D coating) was 7% and the “% Release” value ([4]; 8 hrs, Example 27 controlled release tablet (batch 1258-171), ethylcellulose coating) was 96%. The “% Release” value ([4]; 8 hrs, Example 28 controlled release tablet (batch 1258-175), Kollicoat SR 30D coating) was 61%, the “% Release” value ([4]; 10 hrs, Example 27 controlled release tablet (batch 1258-171), ethylcellulose coating) was 100% and the “% Release” value ([4]; 10 hrs, Example 28 controlled release tablet (batch 1258-175), Kollicoat SR 30D coating) was 74%. For the same compound, the “% Release” value ([4]; 16 hrs, Example 27 controlled release tablet (batch 1258-171), ethylcellulose coating) was 100% and the “% Release” value ([4]; 16 hrs, Example 28 controlled release tablet (batch 1258-175), Kollicoat SR 30D coating) was 84%.

Compound `CC(NC(C)(C)C)C(=O)c1cccc(Cl)c1` (stereo not shown) [Bupropion HBr, bupropion hydrobromide] has a pKa [1] of 7.8.
